Experimental data from US10168342B2, “Lipid probes and uses thereof” (THE SCRIPPS RESEARCH INSTITUTE, priority 2015, dated 2019).
Like-named read-outs stand apart in the source and are kept apart here.

Assays:
[1] = biological target: T1, AEA-DA lipid probe targets in Neuro2a cells (Mus musculus, UniProt O35887)
T1 sequence (O35887 20-315): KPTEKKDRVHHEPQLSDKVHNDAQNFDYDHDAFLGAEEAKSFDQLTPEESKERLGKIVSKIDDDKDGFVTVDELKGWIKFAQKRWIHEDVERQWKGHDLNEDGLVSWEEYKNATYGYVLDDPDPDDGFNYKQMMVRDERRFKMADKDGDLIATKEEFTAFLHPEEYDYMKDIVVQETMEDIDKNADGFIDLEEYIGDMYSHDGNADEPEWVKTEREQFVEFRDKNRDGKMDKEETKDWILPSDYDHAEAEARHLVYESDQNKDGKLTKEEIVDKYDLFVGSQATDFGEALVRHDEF

[2] = biological target: T2, AEA-DA lipid probe targets in Neuro2a cells (Mus musculus, UniProt Q6PD26)
T2 sequence (Q6PD26 1-555): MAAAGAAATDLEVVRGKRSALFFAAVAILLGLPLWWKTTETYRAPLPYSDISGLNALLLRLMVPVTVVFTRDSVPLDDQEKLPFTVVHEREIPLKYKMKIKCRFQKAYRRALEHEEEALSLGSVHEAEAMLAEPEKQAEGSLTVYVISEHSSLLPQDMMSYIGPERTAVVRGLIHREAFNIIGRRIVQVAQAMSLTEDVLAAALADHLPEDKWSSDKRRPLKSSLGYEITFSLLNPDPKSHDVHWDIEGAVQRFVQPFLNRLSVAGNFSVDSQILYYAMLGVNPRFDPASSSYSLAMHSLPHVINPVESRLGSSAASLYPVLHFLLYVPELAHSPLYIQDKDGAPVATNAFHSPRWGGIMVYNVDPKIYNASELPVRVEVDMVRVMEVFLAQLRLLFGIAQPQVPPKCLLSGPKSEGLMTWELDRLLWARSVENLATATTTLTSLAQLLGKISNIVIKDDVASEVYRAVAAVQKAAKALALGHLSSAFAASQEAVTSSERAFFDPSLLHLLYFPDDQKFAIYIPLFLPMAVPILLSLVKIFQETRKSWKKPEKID

[3] = biological target: T3, AEA-DA lipid probe targets in Neuro2a cells (Mus musculus, UniProt Q8K411)
T3 sequence (Q8K411 16-1036): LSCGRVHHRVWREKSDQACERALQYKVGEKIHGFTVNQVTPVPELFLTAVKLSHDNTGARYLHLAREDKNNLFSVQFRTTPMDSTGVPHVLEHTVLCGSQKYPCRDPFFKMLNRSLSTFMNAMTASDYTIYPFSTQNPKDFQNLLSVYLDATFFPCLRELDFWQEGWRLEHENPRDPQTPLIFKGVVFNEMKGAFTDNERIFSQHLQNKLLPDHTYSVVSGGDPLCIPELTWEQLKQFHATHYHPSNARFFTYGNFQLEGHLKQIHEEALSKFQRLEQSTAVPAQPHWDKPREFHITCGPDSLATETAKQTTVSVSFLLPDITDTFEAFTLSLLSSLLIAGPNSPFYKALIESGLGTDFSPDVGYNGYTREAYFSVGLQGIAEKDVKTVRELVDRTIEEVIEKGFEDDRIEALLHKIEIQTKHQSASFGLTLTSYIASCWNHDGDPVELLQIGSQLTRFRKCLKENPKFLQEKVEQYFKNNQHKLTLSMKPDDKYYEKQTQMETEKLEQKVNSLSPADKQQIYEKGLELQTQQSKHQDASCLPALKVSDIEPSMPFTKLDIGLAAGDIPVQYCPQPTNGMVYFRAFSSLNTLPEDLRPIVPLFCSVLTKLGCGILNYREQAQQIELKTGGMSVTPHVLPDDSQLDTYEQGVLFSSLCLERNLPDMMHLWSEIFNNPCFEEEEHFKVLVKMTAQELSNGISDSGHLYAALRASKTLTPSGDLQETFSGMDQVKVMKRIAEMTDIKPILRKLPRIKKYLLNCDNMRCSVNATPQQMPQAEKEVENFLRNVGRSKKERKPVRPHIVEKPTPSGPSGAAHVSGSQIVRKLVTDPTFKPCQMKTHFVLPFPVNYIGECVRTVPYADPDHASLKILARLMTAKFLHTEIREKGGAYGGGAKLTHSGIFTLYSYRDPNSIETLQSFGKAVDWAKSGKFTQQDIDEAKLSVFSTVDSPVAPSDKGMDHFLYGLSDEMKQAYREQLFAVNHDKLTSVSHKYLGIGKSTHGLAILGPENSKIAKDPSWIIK

[4] = biological target: T4, AEA-DA lipid probe targets in Neuro2a cells (Mus musculus, UniProt Q8BKE6)
T4 sequence (Q8BKE6 1-462): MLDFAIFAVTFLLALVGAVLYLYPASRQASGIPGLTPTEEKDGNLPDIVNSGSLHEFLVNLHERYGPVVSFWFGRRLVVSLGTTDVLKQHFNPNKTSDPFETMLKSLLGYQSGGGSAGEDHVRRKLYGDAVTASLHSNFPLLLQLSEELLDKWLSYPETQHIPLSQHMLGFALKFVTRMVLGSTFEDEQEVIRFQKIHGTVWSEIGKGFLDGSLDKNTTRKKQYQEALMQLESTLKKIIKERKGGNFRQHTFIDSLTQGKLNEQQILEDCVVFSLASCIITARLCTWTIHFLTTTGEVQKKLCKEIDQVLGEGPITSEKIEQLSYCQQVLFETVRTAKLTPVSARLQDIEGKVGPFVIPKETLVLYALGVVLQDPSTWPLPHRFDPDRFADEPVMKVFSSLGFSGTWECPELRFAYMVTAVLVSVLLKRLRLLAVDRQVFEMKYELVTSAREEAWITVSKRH

Row | Compound | SILAC ratio, Calu ([1]; competitor 25 μM) | SILAC ratio Pigs ([2]; competitor 25 μM) | SILAC ratio, Cyp20a1 ([4]; competitor 25 μM) | SILAC ratio, Pitrm1 ([3]; competitor 25 μM) | also measured
1 | CCCCC/C=C\C/C=C\C/C=C\C/C=C\CCCC(=O)NCCO [AEA, anandamide, reference compound] |  |  |  |  | SILAC ratio, Calu ([1]; competitor 200 μM): 1.0; SILAC ratio Pigs ([2]; competitor 200 μM): 1.6; SILAC ratio, Pitrm1 ([3]; competitor 200 μM): 2.1
2 | O=C(/C=C/c1cccnc1)NCCCCC1CCN(C(=O)c2ccccc2)CC1 [FK-866, reference compound] | 1.0 | 1.3 | 1.1 | 1.4 | 
3 | CN1CCN(C(=O)c2c(-c3ccccc3)c3cc([N+](=O)[O-])ccc3n2C)CC1 [KML110, (1-Methyl-5-nitro-3-phenyl-1H-indol-2-yl)(4-methylpiperazin-1-yl)methanone] | 1.1 | 1.2 | 1.4 | 2.0 | 
4 | CN1CCN(C(=O)c2[nH]c3ccc([N+](=O)[O-])cc3c2-c2ccccc2)CC1 [MJN228, (4-Methylpiperazin-1-yl)(5-nitro-3-phenyl-1H-indol-2-yl)methanone] | 1.5 | 1.6 | 1.3 | 1.9 | SILAC ratio, Calu ([1]; competitor 10 μM): 1.1; SILAC ratio, Calu ([1]; competitor 100 μM): 1.8; SILAC ratio Pigs ([2]; competitor 10 μM): 1.3; SILAC ratio Pigs ([2]; competitor 50 μM): 1.7; SILAC ratio Pigs ([2]; competitor 100 μM): 2.0; SILAC ratio, Cyp20a1 ([4]; competitor 10 μM): 1.2; SILAC ratio, Cyp20a1 ([4]; competitor 50 μM): 1.2; SILAC ratio, Cyp20a1 ([4]; competitor 100 μM): 1.6; SILAC ratio, Pitrm1 ([3]; competitor 10 μM): 1.6; SILAC ratio, Pitrm1 ([3]; competitor 50 μM): 2.2; SILAC ratio, Pitrm1 ([3]; competitor 100 μM): 3.4
5 | C=CCN(C)CCCCCCOc1ccc(C(=O)c2ccc(Br)cc2)c(F)c1 [Ro 48-8071, reference compound] | 0.9 | 1.1 | 1.1 | 1.0 | 
